Source: article PMC11868595, “Safety, pharmacokinetics and efficacy of HA121-28 in patients with advanced solid tumors and RET fusion-positive non-small-cell lung cancer: a multicenter, open-label, single-arm phase 1/2 trial” (Signal Transduction and Targeted Therapy, 2025)
Marks after values point to notes of the source that are not given here.

Tests used:
PDGFRα = PDGFRα (Homo sapiens, UniProt P16234); assay: Tyrosine kinase inhibition; type: biochemical
TT cells = assay: Tumor cell proliferation in vitro; type: cell-based, human
matrigel angiogenesis = type: in vivo, mouse; conditions: induced by VEGF and FGF
CHL = CHL test; type: cell-based
[1] = tested on: human esophageal cancer ECA-109 tumors; assay: ECA-109 tumors in nude mice; type: in vivo
Metabolites in plasma = conditions: dogs
LCK = LCK (Homo sapiens, UniProt P06239); assay: Tyrosine kinase inhibition; type: biochemical
[2] = Cynomolgus monkey plasma kinetics; type: in vivo
AXL = AXL (Homo sapiens, UniProt P30530); assay: Tyrosine kinase inhibition; type: biochemical
Plasma protein binding = type: in vitro ADME; conditions: mice

Chain of AXL (P30530 26-894): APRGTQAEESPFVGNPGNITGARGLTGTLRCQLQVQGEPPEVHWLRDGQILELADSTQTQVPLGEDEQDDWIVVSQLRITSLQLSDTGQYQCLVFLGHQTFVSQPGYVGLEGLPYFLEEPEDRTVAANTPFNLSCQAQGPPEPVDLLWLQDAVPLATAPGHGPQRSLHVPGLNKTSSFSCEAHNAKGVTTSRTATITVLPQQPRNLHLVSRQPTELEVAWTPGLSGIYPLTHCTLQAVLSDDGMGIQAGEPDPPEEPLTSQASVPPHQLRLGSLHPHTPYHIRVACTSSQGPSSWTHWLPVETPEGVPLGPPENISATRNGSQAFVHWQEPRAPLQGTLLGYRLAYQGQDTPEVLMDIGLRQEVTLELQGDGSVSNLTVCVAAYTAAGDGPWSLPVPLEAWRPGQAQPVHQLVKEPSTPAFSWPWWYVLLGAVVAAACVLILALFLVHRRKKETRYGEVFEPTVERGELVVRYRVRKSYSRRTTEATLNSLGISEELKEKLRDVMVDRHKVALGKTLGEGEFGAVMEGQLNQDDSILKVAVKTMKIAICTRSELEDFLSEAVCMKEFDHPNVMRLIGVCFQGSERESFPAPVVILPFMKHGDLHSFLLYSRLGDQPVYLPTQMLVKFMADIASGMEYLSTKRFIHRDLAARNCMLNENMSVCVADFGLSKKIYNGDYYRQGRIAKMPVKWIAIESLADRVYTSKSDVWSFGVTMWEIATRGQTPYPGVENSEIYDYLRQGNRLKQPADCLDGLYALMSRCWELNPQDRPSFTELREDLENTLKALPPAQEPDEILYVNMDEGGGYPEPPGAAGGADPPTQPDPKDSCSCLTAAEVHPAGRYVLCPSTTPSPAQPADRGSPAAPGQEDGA
Chain of PDGFRα (P16234 24-1089): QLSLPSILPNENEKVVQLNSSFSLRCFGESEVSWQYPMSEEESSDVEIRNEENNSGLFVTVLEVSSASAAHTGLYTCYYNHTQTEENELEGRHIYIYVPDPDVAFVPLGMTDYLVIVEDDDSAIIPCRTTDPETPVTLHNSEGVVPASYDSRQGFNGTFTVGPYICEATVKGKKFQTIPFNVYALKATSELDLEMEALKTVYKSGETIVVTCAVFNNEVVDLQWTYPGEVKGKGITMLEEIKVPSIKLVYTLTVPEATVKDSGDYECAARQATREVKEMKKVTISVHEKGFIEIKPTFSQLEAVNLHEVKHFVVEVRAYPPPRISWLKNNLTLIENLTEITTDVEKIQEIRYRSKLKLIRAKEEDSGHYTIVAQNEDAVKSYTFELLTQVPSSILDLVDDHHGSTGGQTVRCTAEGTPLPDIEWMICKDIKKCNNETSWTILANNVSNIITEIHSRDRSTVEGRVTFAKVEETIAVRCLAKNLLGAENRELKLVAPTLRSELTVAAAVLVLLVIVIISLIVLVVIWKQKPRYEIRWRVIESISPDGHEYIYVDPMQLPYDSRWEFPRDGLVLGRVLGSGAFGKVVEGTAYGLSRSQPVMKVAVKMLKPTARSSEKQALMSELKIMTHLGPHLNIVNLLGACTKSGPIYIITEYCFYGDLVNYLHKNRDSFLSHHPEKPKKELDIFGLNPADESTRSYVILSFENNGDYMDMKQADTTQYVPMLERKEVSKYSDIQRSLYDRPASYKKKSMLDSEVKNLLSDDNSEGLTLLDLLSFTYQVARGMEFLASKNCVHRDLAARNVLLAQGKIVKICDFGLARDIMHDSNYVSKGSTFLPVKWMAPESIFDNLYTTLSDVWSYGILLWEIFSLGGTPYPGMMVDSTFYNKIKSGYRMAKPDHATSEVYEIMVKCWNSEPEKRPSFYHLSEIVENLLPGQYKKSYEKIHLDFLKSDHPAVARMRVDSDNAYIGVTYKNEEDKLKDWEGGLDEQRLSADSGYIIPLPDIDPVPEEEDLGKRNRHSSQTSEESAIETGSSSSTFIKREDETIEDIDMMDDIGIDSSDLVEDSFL
Chain of LCK (P06239 whole entry): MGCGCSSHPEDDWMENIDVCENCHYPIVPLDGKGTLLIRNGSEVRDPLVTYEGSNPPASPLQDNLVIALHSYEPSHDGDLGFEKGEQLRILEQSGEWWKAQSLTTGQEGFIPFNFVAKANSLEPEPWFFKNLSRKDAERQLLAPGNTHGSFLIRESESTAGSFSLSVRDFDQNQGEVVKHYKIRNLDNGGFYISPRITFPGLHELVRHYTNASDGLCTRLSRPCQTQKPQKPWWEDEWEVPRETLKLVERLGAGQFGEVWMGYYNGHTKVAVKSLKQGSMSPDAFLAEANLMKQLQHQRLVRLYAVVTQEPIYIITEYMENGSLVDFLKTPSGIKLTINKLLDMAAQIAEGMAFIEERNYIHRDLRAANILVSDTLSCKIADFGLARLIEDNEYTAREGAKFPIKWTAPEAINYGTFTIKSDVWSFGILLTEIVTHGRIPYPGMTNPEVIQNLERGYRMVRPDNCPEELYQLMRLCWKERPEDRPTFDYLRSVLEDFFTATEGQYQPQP

With `COc1cc2c(Nc3ccc(Br)cc3F)ncnc2cc1OCCCCN(C)C.Cl.Cl` [HA121-28, N-(4-bromo-2-fluorophenyl)-7-(4-(dimethylamino)butoxy)-6-methoxy quinazolin-4-amine dihydrochloride] the IC50 (PDGFRα) was 58.7 nM, the IC50 (TT cells) was 3.83 ± 0.0915 µM and the mouse matrigel angiogenesis (matrigel angiogenesis) was “able to inhibit”. For the same compound, the genetic toxicity (CHL) was “negative”, the “RTV ±SD” value ([1]; 12.5 mg/kg) was 7.0±2.8 and the T/C ([1]; 12.5 mg/kg) was 68.6%. The “Terminal Tumor Volume” value ([1]; 12.5 mg/kg) was 1,684.6±1,034.3 mm^3, the “RTV ±SD” value ([1]; 25 mg/kg) was 3.1±1.6 and the T/C ([1]; 25 mg/kg) was 29.8%. For the same compound, the “Terminal Tumor Volume” value ([1]; 25 mg/kg) was 693.5±538.6*^▲ mm^3, the “RTV ±SD” value ([1]; 50 mg/kg) was 2.2±0.4 and the T/C ([1]; 50 mg/kg) was 21.6%. The “Terminal Tumor Volume” value ([1]; 50 mg/kg) was 491.8±77.4** mm^3, the “number of metabolites found in plasma” value (Metabolites in plasma) was 7 and the IC50 (LCK) was 14 nM. For the same compound, the AUC0-72h ([2]; gavage (5 mg/kg)) was 1680 ± 766 ng·h/mL, the “AUC0-∞” value ([2]; gavage (5 mg/kg)) was 1920 ± 992 ng·h/mL and the CL ([2]; gavage (5 mg/kg)) was 3.05 ± 1.22 L/h/kg. The Cmax ([2]; gavage (5 mg/kg)) was 75.9 ± 27.8 ng/mL, the MRT0-72h ([2]; gavage (5 mg/kg)) was 20.9 ± 2.67 h and the “MRT0-∞” value ([2]; gavage (5 mg/kg)) was 30.5 ± 8.00 h. It also gave a Tmax ([2]; gavage (5 mg/kg)) of 6.75 ± 1.50 h, a Vd ([2]; gavage (5 mg/kg)) of 100 ± 24.1 L/kg and a t1/2 ([2]; gavage (5 mg/kg)) of 24.4 ± 5.68 h. For the same compound, the AUC0-72h ([2]; intravenous (5 mg/kg)) was 2610 ± 1340 ng·h/mL, the “AUC0-∞” value ([2]; intravenous (5 mg/kg)) was 3000 ± 1880 ng·h/mL and the C6min ([2]; intravenous (5 mg/kg)) was 314 ± 61.4 ng/mL. For the same compound, the CL ([2]; intravenous (5 mg/kg)) was 2.05 ± 0.816 L/h/kg, the MRT0-72h ([2]; intravenous (5 mg/kg)) was 18.8 ± 3.77 h and the “MRT0-∞” value ([2]; intravenous (5 mg/kg)) was 27.5 ± 11.4 h. For the same compound, the Vd ([2]; intravenous (5 mg/kg)) was 58.7 ± 15.7 L/kg, the t1/2 ([2]; intravenous (5 mg/kg)) was 22.3 ± 8.39 h and the “F (oral bioavailability)” value ([2]; monkey) was 64.4%. For the same compound, the IC50 (AXL) was 589 nM and the “plasma protein binding rate” value (Plasma protein binding) was 97.2±0.266%.
